This note sets out measurements from patent publication USRE39682E1, “Farnesyl derivatives and pharmaceutical compositions containing them” (Ramot at Tel Aviv University Ltd., priority 1993, dated 2007).

Like-named read-outs stand apart in the source and are kept apart here.

Assay [1] addresses T1, PPMTase (Rattus norvegicus, UniProt Q9WVM4).
T1 construct: PPMTase activity in membranes obtained from four different cell lines as determined by methylation of AFC; endogenous in cells; host or cells: ras-transformed rat1 (EJ) cell membranes
Put plainly: PPMTase activity (AFC methylation) in membranes of non-transformed Rat-1 cells. The format is biochemical. The settings on record: non-transformed Rat-1 membranes; for PPMTase activity: with inhibitor. How it is done: (§1) Charles River adult male rats were used for preparation of cerebellar synaptosomal membranes. Cerebella were removed after decapitation and homogenized in 0.32M sucrose containing 50 mM Tris-HCl pH 7.4, 3 mM EDTA, 1 mM EGTA, 5 unit/ml aprotinin and 5 μg/ml pepstatin (buffer A) to yield 10% (w/v) homogenates. Nuclear fractions were obtained by 10 min. 600×g centrifugation and synaptosomal fractions were obtained by 20 mins. 14,500×g centrifugation. Membranes of the various cell types used were prepared in the above buffer A by a 60 min. spin at 100,000×g.
(§2) Pellets were resuspended in the homogenization buffer and stored at −70° C. Methylation assays were performed at 37° C. in 50 mM Tris-HCl buffer pH 7.4, using 75-125 μg protein, 25 μM [methyl-^3H]AdoMet ([…]) as a methyl donor and 150 μM AFC as a methylation substrate (prepared as a stock solution in DMSO) in a total volume of 50 μl. DMSO concentration in all assays was 4%.
(§3) Reactions were terminated after 10 min. by adding 500 μl chloroform methanol (1:1) and a subsequent addition of 250 μl H2O, mixing them and subsequently by phase separation. A portion of 125 μl of the chloroform phase was dried down at 40° C. and 200 μl of 1M NaOH/1% SDS solution were added thereto. The [^3H]methanol thus formed was counted by the vapor phase equilibrium method as described previously (Hakiai et al., Cell Mol. Neurobiol., 11, 415-431, (1991); Lenner et al., Cell Mol. Neurbiol., 12, 333 and 3351, (1992); Ben-Baruch et al., Biochem. Biophy. Res. Commun., 195, 282-288, (1993)). Typical background counts (i.e. counts of methylation with no AFC added) were 50-100 cpm while typical methylation counts with AFC as a substrate yielded 500 to 6000 cpm. Assays were performed in triplicate and background counts subtracted. Methylation of endogenous substrates, in intact cells, and [α-^32P] GTP-blot overlay assays and gel electrophoreses were performed as detailed previously (Hakiai et al., supra (1991); Lenner et al., supra (1993)).
(§4) The B16F10 melanoma cells were grown in RPMI 1640/10% fetal calf serum, 2 mM glutamine and antibiotics as for the HEC1A cells, at the density of 1×10^4 cells/well. All four types of cells were used for determining the PPMTase activity using AFC as the substrate as described above for synaptosomal membrane preparation. Usually 150 μg membranal proteins were used in the assay for a 10 min. incubation time.

The target of assay [2] is T2, PPMTase (Mus musculus, UniProt Q9EQK7).
T2 construct: PPMTase activity in membranes obtained from four different cell lines as determined by methylation of AFC; endogenous in cells; host or cells: B16F10 melanoma cell membranes
As to the kind of experiment: PPMTase activity (AFC methylation) in membranes of B16F10 melanoma cells. The settings on record: for PPMTase activity: with inhibitor. The format is biochemical. How it is done:
as §1, §2, §3, §4

Assay [3] deals with PPMTase activity in intact HEC1A, ras-transformed rat1 and melanoma cells. As to the kind of experiment: Methylation of endogenous 21-24 KDa GTP-binding proteins in intact cells ([methyl-3H]methionine labelling). The settings on record: 100 μM, FIG. 3. The format is cell-based. The protocol:
as §3
HEC1A, rail, ras-transformed rail and B16F10 melanoma cells were also used for metabolic labelling of endogenous proteins with 100-300 μCi/ml [methyl-^3H]methionine which was also indicative of PPMTase activity. […]

Assay [4] addresses T3, PPMTase (Homo sapiens, UniProt O60725).
T3 construct: PPMTase activity in membranes obtained from four different cell lines as determined by methylation of AFC; endogenous in cells; host or cells: HEC1A cell membranes
As to the kind of experiment: PPMTase activity (AFC methylation) in membranes of HEC1A cells. The format is biochemical. The settings on record: for PPMTase activity: with inhibitor. How it is done:
as §1, §2, §3, §4

Assay [5] addresses T1, PPMTase. Put plainly: PPMTase activity (AFC methylation) in membranes of ras-transformed rat1 cells. The format is biochemical. The settings on record: ras-transformed rat fibroblast membranes; for PPMTase activity: with inhibitor. The protocol:
as §1, §2, §3, §4

Assay [6] has as its target T4, prenylated protein methyltransferase (PPMTase) (Rattus norvegicus, UniProt Q9WVM4).
T4 construct: from tissue; host or cells: rat cerebellum, synaptosomal membranes
Put plainly: Methylation of AFC by PPMTase in rat cerebellar synaptosomal membranes. The conditions noted are these: for IC50: synaptosomal membranes, FIG. 2, read-out: IC50 (concentration resulting in 50% inhibition of AFC methylation). The format is biochemical.
Text: As a substrate for methylation served AFC and as the donor of methyl served [methyl-H^3] labelled AdoMet. As a source of the enzyme prenylated protein methyltransferase (PPTMase) served rat cerebellar membranes which are known to be membranes enriched with this enzyme (Ben-Baruch, Biochem. Biophys. Res. Commun., 195, 282-288. (1993)).
as §1
Pellets were resuspended in the homogenization buffer and stored at −70° C. Methylation assays were performed at 37° C. in 50 mM Tris-HCl buffer pH 7.4, using 75-125 μg protein, 25 μM [methyl-^3H]AdoMet ([…] in DMSO) in a total volume of 50 μl. DMSO concentration in all assays was 4%.
as §3

[7] abbreviates: Table II, given as range, read-out: Ki.
Setting [8] is: from FIG. 2 curves, 100 μM AFC, read-out: inhibition constant (Ki).

T1 sequence (Q9WVM4 whole entry): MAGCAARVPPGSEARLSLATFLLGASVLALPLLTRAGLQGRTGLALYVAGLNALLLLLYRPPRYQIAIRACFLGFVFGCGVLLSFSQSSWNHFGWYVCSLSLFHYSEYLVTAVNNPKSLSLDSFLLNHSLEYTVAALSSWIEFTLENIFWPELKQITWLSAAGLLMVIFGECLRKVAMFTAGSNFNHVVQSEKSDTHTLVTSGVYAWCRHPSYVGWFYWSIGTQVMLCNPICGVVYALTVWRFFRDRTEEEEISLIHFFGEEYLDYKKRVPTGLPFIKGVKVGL
T4 sequence (Q9WVM4 whole entry): as above
T3 sequence (O60725 whole entry): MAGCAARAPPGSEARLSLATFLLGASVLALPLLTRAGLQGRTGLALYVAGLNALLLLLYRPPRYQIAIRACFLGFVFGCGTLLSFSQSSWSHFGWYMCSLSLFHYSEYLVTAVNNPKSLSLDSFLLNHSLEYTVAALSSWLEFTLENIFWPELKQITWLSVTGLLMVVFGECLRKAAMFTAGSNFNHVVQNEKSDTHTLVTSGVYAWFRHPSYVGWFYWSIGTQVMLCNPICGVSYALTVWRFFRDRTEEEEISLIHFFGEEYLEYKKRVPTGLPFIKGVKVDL
T2 sequence (Q9EQK7 whole entry): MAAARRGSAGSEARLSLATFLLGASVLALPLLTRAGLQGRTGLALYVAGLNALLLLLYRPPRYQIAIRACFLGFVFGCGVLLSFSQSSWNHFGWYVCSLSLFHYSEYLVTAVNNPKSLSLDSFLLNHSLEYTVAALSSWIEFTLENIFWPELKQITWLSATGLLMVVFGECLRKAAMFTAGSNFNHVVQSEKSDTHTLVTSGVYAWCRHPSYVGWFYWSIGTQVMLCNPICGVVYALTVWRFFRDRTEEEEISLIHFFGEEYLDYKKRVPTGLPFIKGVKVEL

With `CC(C)=CCC/C(C)=C/CC/C(C)=C/CSCC(=O)O` [FTA, S-trans, trans-farnesylthioacetic acid, reference compound], the “% Inhibition” value on PPMTase [1] came out at 66%; at PPMTase [2], 38%; on PPMTase [4], 43%; on PPMTase [5], 72%. In addition, the PPMTase activity at PPMTase [1] is listed as 0.9 pmol/min/mg protein; at PPMTase [2], 1.3 pmol/min/mg protein; at PPMTase [4] it was 1.7 pmol/min/mg protein; at PPMTase [5], 1.9 pmol/min/mg protein. For the same molecule, the “inhibition of methylation of endogenous 21-24 KDa proteins” value in assay [3] is “able to inhibit”. For the same molecule, the “[3H-methyl]ester formed” value in assay [6] (100 μM AFC + 200 μM inhibitor) turned out to be 320 ± 50 cpm/assay. In addition, the IC50 in assay [6] (100 μM AFC) turned out to be 23 µM. Further, the Ki is 5.7 to 10.5 µM in assay [6] (setting [7]) and 4 µM in assay [6] (setting [8]).
Take `CC(C)=CCC/C(C)=C/CC/C(C)=C/CSc1ccccc1C(=O)O` [FTS, (3,7,11-trimethyl-dodeca-2,6,10-trienyl)-2-thiobenzoic acid]: the “% Inhibition” value at PPMTase [1] is given as 45%; at PPMTase [2], 50%; on PPMTase [4], 40%; at PPMTase [5], 73%. The PPMTase activity at PPMTase [1] amounted to 1.5 pmol/min/mg protein; on PPMTase [2] it was 1.7 pmol/min/mg protein; on PPMTase [4] it was 1.5 pmol/min/mg protein; on PPMTase [5], 1.8 pmol/min/mg protein. For the same molecule, the “inhibition of methylation of endogenous 21-24 KDa proteins” value in assay [3] is reported as “able to inhibit”. In addition, the “serves as substrate for PPMTase methylation” value in assay [6] is listed as “does not serve as a substrate”. Further, the “[3H-methyl]ester formed” value in assay [6] (100 μM AFC + 200 μM inhibitor) was 280 ± 30 cpm/assay; in assay [6] (200 μM of the substance alone as substrate) it was 30 ± 10 cpm/assay. Further, the IC50 in assay [6] (100 μM AFC) turned out to be 10 µM. Besides, the Ki is 1.5 to 4.2 µM in assay [6] (setting [7]) and 1.5 µM in assay [6] (setting [8]).
